Measurements taken from patent US20080274892A1, “Novel Haloalkylsulfonanilide Derivative, Herbicide, and Method of Use Thereof” (priority 2005, published 2008).

Assays:
barnyard glass = experiment: Test Example 2: herbicidal efficacy on rice paddy weeds post-emergence; format: in vivo, Echinochloa crus-galli; details: post-emergence, one leaf stage, 21 days after treatment
Outline: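 Plastic pots of 75 cm^2 were filled with clay loam soil and sown with barnyard glass and bulrush seeds, then topped with 75 cm^3 soil containing false pimpernel seeds. The pots were flooded to 5 cm water depth and held in a hot house. Twenty-one days after treatment, herbicidal efficacy was graded against an untreated control.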

false pimpernel [1] = experiment: Test Example 1: herbicidal efficacy on rice paddy weeds pre-emergence; format: in vivo, Lindernia pyxidaria; details: 21 days
bulrush [2] = experiment: as above; format: in vivo, Scirpus juncoides; details: 21 days
false pimpernel [3] = experiment: Test Example 2: herbicidal efficacy on rice paddy weeds post-emergence; format: in vivo, Lindernia pyxidaria; details: post-emergence, one leaf stage, 21 days after treatment
bulrush [4] = experiment: as above; format: in vivo, Scirpus juncoides; details: post-emergence, one leaf stage, 21 days after treatment
[5] = tested on: paddy rice plant (cultivar: Nihonbare); experiment: Test Example 3: phytotoxicity test for transplanted paddy rice plant; format: in vivo; details: transplanted rice, 21 days after treatment
Outline: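 Clay loam soil was placed in a 75 cm^2 plastic pot and flooded to a water depth of 5 cm. Two Nihonbare paddy rice plants at the two-leaf stage were transplanted 1 cm deep and grown in a hot house. After treatment, pots stayed in the hot house for 21 days, and phytotoxicity was then graded against an untreated control.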

[6] = dosage 1000 g/ha, treated 5 days after transplantation

Compound | Burnyard grass post (herbicidal efficacy grade) (barnyard glass; dosage 1000 g/ha) | False pimpernel pre (herbicidal efficacy grade) (false pimpernel [1]; dosage 1000 g/ha) | Bulrush pre (herbicidal efficacy grade) (bulrush [2]; dosage 1000 g/ha) | False pimpernel post (herbicidal efficacy grade) (false pimpernel [3]; dosage 1000 g/ha) | Bulrush post (herbicidal efficacy grade) (bulrush [4]; dosage 1000 g/ha) | Phytotoxicity to paddy rice [5, 6] | Burnyard grass post (herbicidal efficacy grade) (barnyard glass; dosage 300 g/ha) | False pimpernel pre (herbicidal efficacy grade) (false pimpernel [1]; dosage 300 g/ha) | Bulrush pre (herbicidal efficacy grade) (bulrush [2]; dosage 300 g/ha) | False pimpernel post (herbicidal efficacy grade) (false pimpernel [3]; dosage 300 g/ha) | Bulrush post (herbicidal efficacy grade) (bulrush [4]; dosage 300 g/ha) | Phytotoxicity to paddy rice ([5]; dosage 300 g/ha)
CC1(C)OC(=O)N(Cc2ccccc2NS(=O)(=O)C(F)(F)F)C1(C)C [Compound 1-73] | 4 (90%-100% of herbicidal efficacy or phytotoxicity) | 4 (90%-100% of herbicidal efficacy or phytotoxicity) | 4 (90%-100% of herbicidal efficacy or phytotoxicity) | 4 (90%-100% of herbicidal efficacy or phytotoxicity) | 4 (90%-100% of herbicidal efficacy or phytotoxicity) | 4 (90%-100% of herbicidal efficacy or phytotoxicity) |  |  |  |  |  | 
CCCC1COC(=O)N1Cc1ccccc1NS(=O)(=O)C(F)(F)F (stereo not drawn) [Compound 1-7] |  |  |  |  |  |  | 1 (1%-39% of herbicidal efficacy or phytotoxicity) | 4 (90%-100% of herbicidal efficacy or phytotoxicity) | 4 (90%-100% of herbicidal efficacy or phytotoxicity) | 2 (40%-69% of herbicidal efficacy or phytotoxicity) | 4 (90%-100% of herbicidal efficacy or phytotoxicity) | 1 (1%-39% of herbicidal efficacy or phytotoxicity)
CCCCC1(C)CN(Cc2ccccc2NS(=O)(=O)C(F)(F)F)C(=O)O1 (racemic) [Compound 1-121] |  |  |  |  |  |  | 1 (1%-39% of herbicidal efficacy or phytotoxicity) | 4 (90%-100% of herbicidal efficacy or phytotoxicity) | 4 (90%-100% of herbicidal efficacy or phytotoxicity) | 4 (90%-100% of herbicidal efficacy or phytotoxicity) | 4 (90%-100% of herbicidal efficacy or phytotoxicity) | 1 (1%-39% of herbicidal efficacy or phytotoxicity)
COC1N(Cc2ccccc2NS(=O)(=O)C(F)(F)F)C(=O)OC1(C)C (stereo not drawn) [Compound No. 1-195, 4-methoxy-5,5-dimethyl-3-[2-(trifluoromethanesulfonylamino)benzyl]oxazolidin-2-one] |  |  |  |  |  |  | 1 (1%-39% of herbicidal efficacy or phytotoxicity) | 1 (1%-39% of herbicidal efficacy or phytotoxicity) | 4 (90%-100% of herbicidal efficacy or phytotoxicity) | 3 (70%-89% of herbicidal efficacy or phytotoxicity) | 4 (90%-100% of herbicidal efficacy or phytotoxicity) | 2 (40%-69% of herbicidal efficacy or phytotoxicity)
CC(C)COC(=O)N(c1ccccc1CN1CC2(CCCC2C)OC1=O)S(=O)(=O)C(F)(F)F (stereo not drawn) [Compound 1-161] | 4 (90%-100% of herbicidal efficacy or phytotoxicity) | 4 (90%-100% of herbicidal efficacy or phytotoxicity) | 4 (90%-100% of herbicidal efficacy or phytotoxicity) | 4 (90%-100% of herbicidal efficacy or phytotoxicity) | 4 (90%-100% of herbicidal efficacy or phytotoxicity) | 1 (1%-39% of herbicidal efficacy or phytotoxicity) |  |  |  |  |  | 
CCCCC1COC(=O)N1Cc1ccccc1NS(=O)(=O)C(F)(F)F (stereo not drawn) [Compound 1-11] |  |  |  |  |  |  | 0 (0% of herbicidal efficacy or phytotoxicity) | 2 (40%-69% of herbicidal efficacy or phytotoxicity) | 4 (90%-100% of herbicidal efficacy or phytotoxicity) | 1 (1%-39% of herbicidal efficacy or phytotoxicity) | 3 (70%-89% of herbicidal efficacy or phytotoxicity) | 0 (0% of herbicidal efficacy or phytotoxicity)
